Experimental data taken from patent US8268821B2, “Methods and compositions” (priority 2003, dated 2012).
Marks after values point to notes of the source that are not given here.

System: cancer-related neuropathic pain
Test: Open label dose escalation study of flupirtine, case studies JE and RM
Details: for SCORE WALKING / SCORE ENJOYMENT / SCORE TOTAL ACTIVITY / SCORE MOOD / SCORE RELATIONSHIPS / SCORE SLEEP / SCORE GENERAL ACTIVITY: pain interference 1-10; for SCORE WALKING: day 1 baseline 7; for SCORE ENJOYMENT / SCORE TOTAL ACTIVITY / AVERAGE PAIN LAST 24 HOURS: day 1 baseline 8; for SCORE NAUSEA / SCORE UN[…] GAIT: day 1 baseline 2; for SCORE POOR CONCENTRATION / WHO PERFORMANCE STATUS / SCORE SLEEP: day 1 baseline 3; for SCORE DROWSINESS / SCORE POOR APPETITE: day 1 baseline 4; for WORST PAIN SCORE LAST 24 HOURS: day 1 baseline 10; for neuropathic dwascriminant function score: >0 = neuropathic, day 1 baseline 2.448; for freezing pain score / score for increased pain due to touch / score for increased pain due to weather changes / squeezing pain score: day 1 baseline 0; for burning pain score: day 1 baseline 90; for electric pain score / for shooting pain score / numbness score / score for overly sensitive to touch / tingling pain score / unpleasant pain score: day 1 baseline 95; for overwhelming pain score: day 1 baseline 98; for SCORE GENERAL ACTIVITY: day 1 baseline 5
[1] = JE day 5, flupirtine 100 mg qid
[2] = JE day 5, flupirtine 100 mg qid, scale 1-4, day 1 baseline 1
[3] = JE day 5, flupirtine 100 mg qid, scale 1-4
[4] = JE day 5, flupirtine 100 mg qid, scale to 10, day 1 baseline 1
[5] = JE day 5, flupirtine 100 mg qid, scale to 10
[6] = JE day 6, flupirtine 100 mg qid
[7] = JE day 6, flupirtine 100 mg qid, day 1 baseline 1
[8] = JE day 6, flupirtine 100 mg qid, scale 1-4, day 1 baseline 1
[9] = JE day 6, flupirtine 100 mg qid, scale 1-4
[10] = JE day 6, flupirtine 100 mg qid, scale to 10, day 1 baseline 1
[11] = JE day 6, flupirtine 100 mg qid, scale to 10
[12] = JE day 7, flupirtine 100 mg qid
[13] = JE day 7, flupirtine 100 mg qid, day 1 baseline 1
[14] = JE day 7, flupirtine 100 mg qid, scale 1-4, day 1 baseline 1
[15] = JE day 7, flupirtine 100 mg qid, scale 1-4
[16] = JE day 7, flupirtine 100 mg qid, scale to 10, day 1 baseline 1
[17] = JE day 7, flupirtine 100 mg qid, scale to 10
[18] = JE day 8, flupirtine 100 mg qid
[19] = JE day 8, flupirtine 100 mg qid, day 1 baseline 1
[20] = JE day 8, flupirtine 100 mg qid, scale 1-4
[21] = JE day 8, flupirtine 100 mg qid, scale 1-4, day 1 baseline 1
[22] = JE, day after day 8 (discharge), flupirtine 100 mg QID with Oxycontin 40 mg/24 hrs, scale to 10

CCOC(=O)Nc1ccc(NCc2ccc(F)cc2)nc1N [flupirtine]
−1.048: neuropathic dwascriminant function score [6]
1-: other symptoms hallucinations [20] | other symptom twitch [21]
4: SCORE CONSTIPATION [2] | SCORE UN[…] GAIT [3] | SCORE POOR CONCENTRATION [3] | SCORE DROWSINESS [3] | SCORE POOR APPETITE [3] | WORST PAIN SCORE LAST 24 HOURS [17]
2: SCORE POOR CONCENTRATION [9] | SCORE POOR APPETITE [9] | SCORE UN[…] GAIT [15] | WHO performance status score (JE, day after day 8 (discharge), flupirtine 100 mg QID with Oxycontin 40 mg/24 hrs, 0=fully active, 4=completely disabled)
95: unpleasant pain score [18] | overwhelming pain score [18]
6: WORST PAIN SCORE LAST 24 HOURS [5]
40: overwhelming pain score [6]
80: score for increased pain due to touch [6]
−1.408: neuropathic dwascriminant function score [12]
0: LEAST PAIN LAST 24 HRS [4] | PAIN SCORE RIGHT NOW [4] | AVERAGE PAIN LAST 24 HOURS [5] | freezing pain score [6] | score for increased pain due to weather changes [6] | squeezing pain score [6] | burning pain score [6] | electric pain score [6] | for shooting pain score [6] | numbness score [6] | score for overly sensitive to touch [6] | tingling pain score [6] | unpleasant pain score [6] | LEAST PAIN LAST 24 HRS [10] | freezing pain score [12] | score for increased pain due to touch [12] | score for increased pain due to weather changes [12] | squeezing pain score [12] | burning pain score [12] | electric pain score [12] | for shooting pain score [12] | numbness score [12] | score for overly sensitive to touch [12] | tingling pain score [12] | unpleasant pain score [12] | overwhelming pain score [12] | LEAST PAIN LAST 24 HRS [16] | PAIN SCORE RIGHT NOW [16] | AVERAGE PAIN LAST 24 HOURS [17] | freezing pain score [18] | score for increased pain due to touch [18] | score for increased pain due to weather changes [18] | squeezing pain score [18] | burning pain score [18] | electric pain score [18] | for shooting pain score [18] | score for overly sensitive to touch [18] | tingling pain score [18] | average pain score for the previous 24 hours [22] | least pain [22] | worst pain [22]
3: SCORE ENJOYMENT [1] | WHO PERFORMANCE STATUS (JE day 6, flupirtine 100 mg qid, 0=fully active, 4=completely disabled) | SCORE UN[…] GAIT [9] | SCORE DROWSINESS [9] | WHO PERFORMANCE STATUS (JE day 7, flupirtine 100 mg qid, 0=fully active, 4=completely disabled) | SCORE DROWSINESS [15] | SCORE POOR APPETITE [15] | WHO PERFORMANCE STATUS (JE day 8, flupirtine 100 mg qid, 0=fully active, 4=completely disabled) | WHO PERFORMANCE STATUS (RM day 2, flupirtine 100 mg qid, 0=fully active, 4=completely disabled)
8: PAIN SCORE RIGHT NOW [10] | AVERAGE PAIN LAST 24 HOURS [11] | SCORE MOOD [19] | SCORE ENJOYMENT [18]
90: numbness score [18]
1*: SCORE GENERAL ACTIVITY [18] | SCORE WALKING [18] | SCORE TOTAL ACTIVITY [18] | SCORE CONSTIPATION [21] | SCORE NAUSEA [20] | SCORE POOR CONCENTRATION [20] | SCORE DROWSINESS [20] | SCORE POOR APPETITE [20]
9: WORST PAIN SCORE LAST 24 HOURS [11] | PAIN SCORE RIGHT NOW (JE day 8, flupirtine 100 mg qid, scale to 10, day 1 baseline 1)
7: AVERAGE PAIN LAST 24 HOURS (JE day 8, flupirtine 100 mg qid, scale to 10)
1: SCORE WALKING [1] | SCORE TOTAL ACTIVITY [1] | SCORE INDIGESTION [2] | SCORE NAUSEA [3] | SCORE MOOD [7] | SCORE RELATIONSHIPS [7] | SCORE SLEEP [6] | SCORE GENERAL ACTIVITY [6] | SCORE WALKING [6] | SCORE ENJOYMENT [6] | SCORE TOTAL ACTIVITY [6] | SCORE CONSTIPATION [8] | SCORE INDIGESTION [8] | SCORE NAUSEA [9] | SCORE MOOD [13] | SCORE RELATIONSHIPS [13] | SCORE SLEEP [12] | SCORE GENERAL ACTIVITY [12] | SCORE WALKING [12] | SCORE ENJOYMENT [12] | SCORE TOTAL ACTIVITY [12] | SCORE CONSTIPATION [14] | SCORE INDIGESTION [14] | SCORE NAUSEA [15] | SCORE POOR CONCENTRATION [15] | SCORE RELATIONSHIPS [19] | SCORE INDIGESTION [21]
10: SCORE SLEEP [18]
